Assay results reported in patent publication US4214093A, “Amino- or guanidino-1,2,3,4-tetrahydro-1-naphthoic esters” (Torii & Co., Ltd., priority 1977, dated 1980).
Where two headings read alike, the source gives them in different places.

Experiments:
[1] = test system: clotting activity of thrombin; assay: Inhibitory activity on plasma clotting (rabbit platelet poor plasma, thrombin-induced); format: biochemical
Protocol: Blood was drawn from carotid artery of an ether anesthetized rabbit with 1/10 volume of 3.8% sodium citrate. Platelet poor plasma (PPP) was prepared from citrated blood which was centrifuged at 3,000 r.p.m. for 15 minutes at 4° C. PPP, 0.9 ml, was taken into cell, 10μ of a compound solution was added and incubated at 37° C. for 10 minutes. […] Compounds were dissolved in distilled water or 50% dimethyl sulfoxide (0.5% final concentration).

Human Plasmin = Human Plasmin (Homo sapiens, UniProt P00747); assay: Inhibitory effect on ester-hydrolyzing activity of human plasmin (TAMe substrate); format: biochemical; details: for IC50: Table 4 bracketed value, read-out: Plasmin ID50; for inhibition at 1000 µM: read-out: Plasmin percent inhibition
Chain of Human Plasmin (P00747 581-810 limits assumed): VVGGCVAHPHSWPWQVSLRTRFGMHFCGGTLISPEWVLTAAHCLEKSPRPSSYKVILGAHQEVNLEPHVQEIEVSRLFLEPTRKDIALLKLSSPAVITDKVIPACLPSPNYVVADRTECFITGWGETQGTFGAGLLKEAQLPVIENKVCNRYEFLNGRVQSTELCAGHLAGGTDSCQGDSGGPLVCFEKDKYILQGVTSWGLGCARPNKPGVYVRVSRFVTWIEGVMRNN
Chain of Human Plasmin (P00747 97-580 partner limits assumed): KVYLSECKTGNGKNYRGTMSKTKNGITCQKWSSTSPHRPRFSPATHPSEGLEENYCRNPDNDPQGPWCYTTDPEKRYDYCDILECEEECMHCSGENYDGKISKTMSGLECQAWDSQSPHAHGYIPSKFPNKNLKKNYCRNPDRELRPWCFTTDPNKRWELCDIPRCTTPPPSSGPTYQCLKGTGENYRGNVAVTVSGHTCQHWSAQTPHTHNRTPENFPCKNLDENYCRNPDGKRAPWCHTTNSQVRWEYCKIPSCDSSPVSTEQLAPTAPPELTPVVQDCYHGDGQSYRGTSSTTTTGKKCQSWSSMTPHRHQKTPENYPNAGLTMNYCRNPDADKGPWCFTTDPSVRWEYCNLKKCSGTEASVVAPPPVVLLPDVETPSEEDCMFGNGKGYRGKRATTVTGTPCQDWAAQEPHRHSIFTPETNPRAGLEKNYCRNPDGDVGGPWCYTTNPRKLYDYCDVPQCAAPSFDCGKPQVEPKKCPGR
Protocol: The enzyme-inhibitory activities in vitro of the compounds of this invention were measured by the following procedure according to the method of M. Muramatsu et al. [[…]. […] After the incubation, 1.5 ml of 2 M alkaline hydroxylamine was added and thoroughly mixed, and allowed to stand at room temperature for 15 minutes. […] It was measured by using 0.1 ml of plasmin (generated by activation of plasminogen with streptokinase) and TAMe as substrate following the method described in (1).

Trypsin = biological target: T1, Trypsin (Bos taurus, UniProt P00760); assay: Inhibitory effect on ester-hydrolyzing activity of trypsin (TAMe substrate); format: biochemical; details: for IC50: pH 8.6, 37° C., Table 4 bracketed value, read-out: Trypsin ID50; for inhibition at 1000 µM: read-out: Trypsin percent inhibition
T1 sequence (P00760 24-246): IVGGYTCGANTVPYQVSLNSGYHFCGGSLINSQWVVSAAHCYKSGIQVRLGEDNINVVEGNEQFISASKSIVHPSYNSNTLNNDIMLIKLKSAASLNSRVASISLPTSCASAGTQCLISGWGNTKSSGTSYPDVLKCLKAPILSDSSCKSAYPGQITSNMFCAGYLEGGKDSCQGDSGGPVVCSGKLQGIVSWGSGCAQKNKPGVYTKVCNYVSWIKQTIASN
Protocol: (§1) The enzyme-inhibitory activities in vitro of the compounds of this invention were measured by the following procedure according to the method of M. Muramatsu et al. [[…]. […] After the incubation, 1.5 ml of 2 M alkaline hydroxylamine was added and thoroughly mixed, and allowed to stand at room temperature for 15 minutes.

Human Cl Esterase = biological target: T2, Human Cl Esterase (Homo sapiens, UniProt P09871); assay: Inhibitory effect on ester-hydrolyzing activity of human Cl esterase (ATEe substrate); format: biochemical; details: for IC50: in vitro, ATEe, pH 7.4, Table 4 bracketed value, read-out: Cl-esterase ID50
T2 sequence (P09871 438-688 limits assumed): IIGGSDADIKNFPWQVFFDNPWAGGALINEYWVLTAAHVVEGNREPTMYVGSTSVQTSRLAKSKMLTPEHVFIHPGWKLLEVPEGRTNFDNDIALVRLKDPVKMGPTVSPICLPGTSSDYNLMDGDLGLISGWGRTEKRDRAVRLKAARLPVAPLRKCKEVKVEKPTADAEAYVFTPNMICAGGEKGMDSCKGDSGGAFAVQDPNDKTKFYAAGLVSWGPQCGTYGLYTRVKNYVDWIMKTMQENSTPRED
T2 sequence (P09871 16-437 partner limits assumed): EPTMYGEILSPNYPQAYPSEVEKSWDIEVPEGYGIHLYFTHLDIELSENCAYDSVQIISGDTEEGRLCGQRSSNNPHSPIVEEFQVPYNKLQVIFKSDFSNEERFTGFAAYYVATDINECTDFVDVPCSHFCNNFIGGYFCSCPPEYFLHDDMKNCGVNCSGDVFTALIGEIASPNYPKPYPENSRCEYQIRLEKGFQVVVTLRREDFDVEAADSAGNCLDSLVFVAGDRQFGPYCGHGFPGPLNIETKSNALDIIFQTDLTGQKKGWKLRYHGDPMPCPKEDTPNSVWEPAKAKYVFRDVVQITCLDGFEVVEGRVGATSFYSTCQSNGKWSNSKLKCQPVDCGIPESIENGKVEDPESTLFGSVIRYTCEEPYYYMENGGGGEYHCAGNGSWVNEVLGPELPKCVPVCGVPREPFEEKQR
Protocol: It was measured by using 0.1 ml of Cl esterase, 0.1 ml of 0.02 M sodium phosphate buffer solution (pH 7.4 ) and 10 μmoles of ATEe (acetyltyrosine ethyl ester) as substrate following the method described in (1).

[2] = Acute toxicity (LD50) by intraperitoneal administration in mice; details: mouse, in vivo, ip
Bovine Thrombin = Bovine Thrombin (Bos taurus, UniProt P00735); assay: Inhibitory effect on ester-hydrolyzing activity of bovine thrombin (TAMe substrate); format: biochemical
Protocol: The enzyme-inhibitory activities in vitro of the compounds of this invention were measured by the following procedure according to the method of M. Muramatsu et al. [M. Muramatsu, T. Onishi, S. Makino, Y. Hayashi and S. Fujii: J. Biochem., 58, 214 (1965)]
To 0.1 ml of trypsin (5 μg/ml) were added 0.5 ml of 0.1 M borate buffer solution (pH 8.6) containing 10 mM CaCl2, and 0.1 ml of a varying concentration of an inhibitor solution, and preincubation was carried out at 37° C. for 5 minutes. Then, 10 μmoles of the substrate, TAMe (tosylarginine methyl ester), was added, and incubation was preformed at 37° C. for 30 minutes.
After the incubation, 1.5 ml of 2 M alkaline hydroxylamine was added and thoroughly mixed, and allowed to stand at room temperature for 15 minutes. Then, 1.0 ml of each of 18% trichloroacetic acid, 4 N HCl and 10% FeCl3 was added and thoroughly mixed. If necessary, the mixture was centrifuged at 3,000 rpm for 10 minutes, and the absorbance of the supernatant was measured at 530 nm.
It was measured by using 0.4 ml of bovine thrombin […], 0.02 M sodium phosphate buffer solution (pH 7.4) and TAMe as substrate following the method described in (1).

Human Plasma Kallikrein = Human Plasma Kallikrein (Homo sapiens, UniProt P03952); assay: Inhibitory effect on ester-hydrolyzing activity of human plasma kallikrein (TAMe substrate); format: biochemical; details: for IC50: Table 4 bracketed value, read-out: Kallikrein ID50
Chain of Human Plasma Kallikrein (P03952 391-638 limits assumed): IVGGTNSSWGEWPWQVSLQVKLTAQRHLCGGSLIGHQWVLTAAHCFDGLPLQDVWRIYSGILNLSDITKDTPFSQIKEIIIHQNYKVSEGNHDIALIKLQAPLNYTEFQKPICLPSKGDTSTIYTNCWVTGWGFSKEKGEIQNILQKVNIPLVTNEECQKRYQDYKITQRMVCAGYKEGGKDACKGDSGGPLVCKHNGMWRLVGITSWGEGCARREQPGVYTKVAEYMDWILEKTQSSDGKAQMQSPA
Chain of Human Plasma Kallikrein (P03952 20-390 partner limits assumed): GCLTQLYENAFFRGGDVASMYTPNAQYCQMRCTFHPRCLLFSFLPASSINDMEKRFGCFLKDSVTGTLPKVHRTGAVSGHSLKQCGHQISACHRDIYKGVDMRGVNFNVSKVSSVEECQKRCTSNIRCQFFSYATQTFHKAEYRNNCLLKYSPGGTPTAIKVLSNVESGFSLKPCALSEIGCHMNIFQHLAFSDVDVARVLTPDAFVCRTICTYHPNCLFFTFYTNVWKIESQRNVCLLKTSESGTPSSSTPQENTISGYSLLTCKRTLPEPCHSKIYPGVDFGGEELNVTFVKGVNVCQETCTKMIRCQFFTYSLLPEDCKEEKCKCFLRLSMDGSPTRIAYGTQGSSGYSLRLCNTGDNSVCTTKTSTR
Protocol: as §1

thrombin = assay: Inhibitory activity on thrombus formation: protection from lethal thrombin injection in mice; format: in vivo, mice (ddY strain); details: 10 minutes before thrombin 300 NIH units/kg i.v., No. 91 in 2.5% gum arabic
Protocol: White male mice (ddY strain), 4 weeks age and weighing 18-27 g, were used throughout the experiments. […] The intravenous injection of 300 NIH units/kg of thrombin over 30 seconds into mice was lethal to all animals. The compounds were intraperitoneally administered in doses of 1, 10, and 100 mg/kg in saline unless otherwise described.
Compounds were intraperitoneally administered 10 minutes before thrombin injection. Compound No. 91 was dissolved in 2.5% gum arabic.

SMILES | Percent inhibition of clotting activity ([1]; 3 × 10^-4 M, DMSO control) [%] | Percent inhibition of clotting activity ([1]; 3 × 10^-5 M, DMSO control) [%] | Percent inhibition of clotting activity ([1]; 10^-3 M, DMSO control) [%] | Percent inhibition of clotting activity ([1]; 10^-4 M, DMSO control) [%] | Percent inhibition of clotting activity ([1]; 10^-5 M, DMSO control) [%] | IC50 (Human Plasmin; in vitro, TAMe) [µM] | IC50 (Trypsin; in vitro, TAMe) [µM] | IC50 (Human Cl Esterase) [µM] | LD50 [2] [mg/kg] | IC50 (Bovine Thrombin) [µM] | Percent inhibition of clotting activity ([1]; 3 × 10^-5 M, H2O control) [%] | Percent inhibition of clotting activity ([1]; 10^-4 M, H2O control) [%] | Percent inhibition of clotting activity ([1]; 10^-5 M, H2O control) [%] | IC50 (Human Plasma Kallikrein; in vitro, TAMe) [µM] | % protective (thrombin; 1 mg/kg i.p.) [%] | Survived / Tested (thrombin; 1 mg/kg i.p.) | % protective (thrombin; 10 mg/kg i.p.) [%] | Survived / Tested (thrombin; 10 mg/kg i.p.) | % protective (thrombin; 100 mg/kg i.p.) [%] | Survived / Tested (thrombin; 100 mg/kg i.p.) | other results
COC(=O)c1ccc(OC(=O)C2CCCc3ccc(NC(=N)N)cc32)cc1 (centres unmarked) [Compound 144] | 57.3 | 1.7 | 98.1 | 58.0 | -3.6 | 45 | 14 | 310 | 192 | 19 |  |  |  |  |  |  |  |  |  |  | 
N=C(N)Nc1cccc2c1CCCC2C(=O)Oc1ccc(Cl)cc1 (centres unmarked) [Compound 111] |  |  |  |  |  |  |  | 680 | 333 |  |  |  |  |  |  |  |  |  |  |  | inhibition at 1000 µM (Human Plasmin; at 10^-3 M, in vitro, TAMe): < 3.2%; inhibition at 1000 µM (Trypsin; at 10^-3 M, in vitro, TAMe): 19%; inhibition at 1000 µM (Human Plasma Kallikrein; at 10^-3 M, in vitro, TAMe, read-out: Kallikrein percent inhibition): < 3.2%; inhibition at 1000 µM (Bovine Thrombin; at 10^-3 M, in vitro, TAMe, read-out: Thrombin percent inhibition): 18.6%
CCOC(=O)c1ccc(OC(=O)C2CCCc3ccc(NC(=N)N)cc32)cc1 (centres unmarked) [Compound 148] |  |  |  |  |  | 140 | 150 | 260 | 92 | 6 | 20.0 | 6.7 | -2.2 | 170 | 0 | 0/10 | 30 | 3/10 | 90 | 9/10 | Percent inhibition of clotting activity ([1]; 3 × 10^-4 M, H2O control): 55.6%; Percent inhibition of clotting activity ([1]; 10^-3 M, H2O control): 100%
CCCCOc1ccc(OC(=O)C2CCCc3ccc(NC(=N)N)cc32)cc1 (centres unmarked) [Compound 142] | 13.0 | -3.0 | 61.0 | 0.0 | -5.0 | 360 |  | 460 |  | 24 |  |  |  | 76 |  |  |  |  |  |  | inhibition at 1000 µM (Trypsin): 36.9%
Cl.N=C(N)Nc1ccc2c(c1)C(C(=O)Oc1ccccc1)CCC2 (centres unmarked) [Compound 134, phenyl 7-guanidino-1,2,3,4-tetrahydro-1-naphthoate hydrochloride] |  |  |  |  |  |  |  | 370 |  | 27 | 11.1 | 42.2 | 13.3 | 290 | 0 | 0/9 | 10 | 1/10 | 70 | 7/10 | Percent inhibition of clotting activity ([1]; 3 × 10^-4 M, H2O control): 97.8%; Percent inhibition of clotting activity ([1]; 10^-3 M, H2O control): 100%; inhibition at 1000 µM (Human Plasmin): < 3.2%; inhibitory activity on plasmin (Human Plasmin; text of Examples): no activity at all; inhibition at 1000 µM (Trypsin): 40.6%; inhibitory activity on kallikrein (Human Plasma Kallikrein; text of Examples): had an inhibitory activity; inhibitory activity on Cl-esterase (Human Cl Esterase; text of Examples): had an inhibitory activity
N=C(N)c1ccc(CC(=O)C(=O)O)cc1 [APPA-Na, sodium p-amidinophenyl pyruvate, reference compound] | 86.5 | -9.5 | 100.0 | 44.2 | -11.7 |  |  |  |  |  |  |  |  |  | 0 | 0/9 | 33 | 3/9 | 46 | 5/11 | 
N=C(N)Nc1ccc2c(c1)C(C(=O)Oc1ccc(Cl)cc1)CCC2 (centres unmarked) [Compound 137] |  |  |  |  |  | 1000 | 78 | 250 |  | 45 | 10.0 | 2.0 | -5.0 | 120 |  |  |  |  |  |  | 
COC(=O)c1ccc(OC(=O)C2CCCc3c(NC(=N)N)cccc32)cc1 (centres unmarked) [Compound 118] |  |  |  |  |  | 1000 | 1000 | 780 | 192 | 80 |  |  |  |  | 20 | 2/10 | 30 | 3/10 | 40 | 4/10 | 
